Measurements as given in ChEMBL document CHEMBL4831493 (Eur J Med Chem, 2021).
Calls of active or inactive are those of the source. The rule behind the calls is not given here.

Key:
[1] = AUC (0 to infinity) in Sprague-Dawley rat at 10 mg/kg, po measured up to 24 hrs by LC-MS/MS analysis; format: ADME, organism-based; parameters: route oral, dose 10 mg/kg, time <=24; conditions: in vivo
[2] = Oral bioavailability in Sprague-Dawley rat at 10 mg/kg measured up to 24 hrs by LC-MS/MS analysis; format: ADME, organism-based; conditions: in vivo
[3] = Drug level in ICR mouse brain at 10 mg/kg, po measured after 1 hr by LC/MS/MS analysis; format: ADME, organism-based; conditions: read-out: Ct
[4] = target: Glycogen synthase kinase-3 beta (Homo sapiens, UniProt P49841); experiment: Inhibition of human recombinant N-terminal His-tagged GSK3beta expressed in Escherichia coli using RRRPASVPPSPSLS RHS(pS)HQRR as substrate incubated for 30 mins in presence of ATP by Kinase-Glo reagent based luminescence assay
HT-22 = experiment: Neuroprotective activity in mouse HT-22 cells assessed as glutamate-induced cell mortality at 6 uM preincubated for 1 hr followed by addition of glutamate and measured after 24 hrs (reference value: 58%); format: functional; conditions: time 25 hrs
[5] = Half life in Sprague-Dawley rat at 10 mg/kg, po measured up to 24 hrs by LC-MS/MS analysis; format: ADME, organism-based; conditions: in vivo
[6] = MRT (0 to infinity) in Sprague-Dawley rat at 1 mg/kg, iv measured up to 24 hrs by LC-MS/MS analysis; format: ADME, organism-based; conditions: in vivo
[7] = Drug level in ICR mouse plasma at 10 mg/kg, po measured after 1 hr by LC/MS/MS analysis; format: ADME, organism-based
[8] = Ratio of drug level in brain to plasma of ICR mouse at 10 mg/kg, po measured after 1.5 hrs by LC/MS/MS analysis; format: ADME, organism-based; conditions: brain and plasma
[9] = Half life in Sprague-Dawley rat at 1 mg/kg, iv measured up to 24 hrs by LC-MS/MS analysis; format: ADME, organism-based; conditions: in vivo
[10] = target: T1, Acetylcholinesterase (Mus musculus) (UniProt P21836); conditions: ICR, dose 10.0 mg/kg, time 1.5 hrs
T1 sequence (whole entry): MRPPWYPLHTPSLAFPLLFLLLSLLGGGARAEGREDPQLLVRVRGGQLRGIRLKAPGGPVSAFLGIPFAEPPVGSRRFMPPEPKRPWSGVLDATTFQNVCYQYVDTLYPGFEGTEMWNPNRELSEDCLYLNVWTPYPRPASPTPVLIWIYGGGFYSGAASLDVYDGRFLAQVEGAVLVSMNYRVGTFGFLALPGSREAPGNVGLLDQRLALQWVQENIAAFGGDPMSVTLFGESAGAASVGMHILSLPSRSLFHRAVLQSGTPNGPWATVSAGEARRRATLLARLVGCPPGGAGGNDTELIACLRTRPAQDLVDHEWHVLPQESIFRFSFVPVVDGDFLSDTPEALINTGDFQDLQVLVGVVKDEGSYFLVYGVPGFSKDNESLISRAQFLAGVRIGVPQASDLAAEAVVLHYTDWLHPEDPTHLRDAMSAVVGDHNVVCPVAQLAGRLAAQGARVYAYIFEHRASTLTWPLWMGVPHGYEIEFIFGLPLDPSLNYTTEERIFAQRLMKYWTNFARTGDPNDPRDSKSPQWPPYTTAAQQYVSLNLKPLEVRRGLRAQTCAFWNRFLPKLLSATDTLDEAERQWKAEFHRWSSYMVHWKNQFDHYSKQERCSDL

Acetylcholinesterase [11] = target: Acetylcholinesterase (Electrophorus electricus, UniProt O42275); experiment: Inhibition of electric eel recombinant AChE preincubated for 1 min in presence of DNTB followed by addition of acetylthiocholine iodide substrate and measured after 20 mins by Ellman's method
[12] = Drug level in ICR mouse brain at 10 mg/kg, po measured after 1.5 hrs by LC/MS/MS analysis; format: ADME, organism-based; conditions: read-out: Ct
[13] = AUC (0 to infinity) in Sprague-Dawley rat at 1 mg/kg, iv measured up to 24 hrs by LC-MS/MS analysis; format: ADME, organism-based; parameters: route intravenous, dose 1 mg/kg, time <=24; conditions: in vivo
[14] = Drug level in ICR mouse plasma at 10 mg/kg, po measured after 1.5 hrs by LC/MS/MS analysis; format: ADME, organism-based
[15] = Ratio of drug level in brain to plasma of ICR mouse at 10 mg/kg, po measured after 1 hr by LC/MS/MS analysis; format: ADME, organism-based; conditions: brain and plasma
[16] = MRT (0 to infinity) in Sprague-Dawley rat at 10 mg/kg, po measured up to 24 hrs by LC-MS/MS analysis; format: ADME, organism-based; conditions: in vivo
[17] = Cmax in Sprague-Dawley rat at 1 mg/kg, iv measured up to 24 hrs by LC-MS/MS analysis; format: ADME, organism-based; parameters: route intravenous, dose 1 mg/kg, time <=24; conditions: in vivo
Mus musculus [18] = experiment: Cognitive enhancing effect in mouse model of scopolamine-induced amnesia assessed as decrease in escape latency at 10 mg/kg/day, po measured by Morris water maze test; format: functional, organism-based
[19] = Effective permeability of the compound by PAMPA-BBB assay; format: ADME; conditions: read-out: Peff
[20] = target: T1, Acetylcholinesterase (Mus musculus); conditions: ICR, dose 10.0 mg/kg, time 1.5 hrs; remark: listed apart in the source
Acetylcholinesterase [21] = target: Acetylcholinesterase (Homo sapiens, UniProt P22303); experiment: Inhibition of human recombinant AChE preincubated for 1 min in presence of DNTB followed by addition of acetylthiocholine iodide substrate and measured after 20 mins by Ellman's method
[22] = Tmax in Sprague-Dawley rat at 10 mg/kg, po measured up to 24 hrs by LC-MS/MS analysis; format: ADME, organism-based; conditions: in vivo
[23] = Cmax in Sprague-Dawley rat at 10 mg/kg, po measured up to 24 hrs by LC-MS/MS analysis; format: ADME, organism-based; parameters: route oral, dose 10 mg/kg, time <=24; conditions: in vivo
Mus musculus [24] = experiment: Improvement in learning and spatial memory in amyloid beta (1 to 42)-induced mouse model of Alzheimer's disease assessed as increase in spontaneous alteration at 10 mg/kg/day, po pretreated with amyloid beta42 for 3 days followed by treatment with compound and measured after 9 days measured by Y-maze test; format: functional, organism-based; conditions: time 9.0 day
Mus musculus [25] = experiment: Improvement in learning and spatial memory in amyloid beta (1 to 42)-induced mouse model of Alzheimer's disease at 10 mg/kg/day, po pretreated with amyloid beta42 for 3 days followed by treatment with compound and measured after 9 days measured by Y-maze test; format: functional, organism-based; conditions: time 9.0 day

Glycogen synthase kinase-3 beta, sequence (P49841 whole entry): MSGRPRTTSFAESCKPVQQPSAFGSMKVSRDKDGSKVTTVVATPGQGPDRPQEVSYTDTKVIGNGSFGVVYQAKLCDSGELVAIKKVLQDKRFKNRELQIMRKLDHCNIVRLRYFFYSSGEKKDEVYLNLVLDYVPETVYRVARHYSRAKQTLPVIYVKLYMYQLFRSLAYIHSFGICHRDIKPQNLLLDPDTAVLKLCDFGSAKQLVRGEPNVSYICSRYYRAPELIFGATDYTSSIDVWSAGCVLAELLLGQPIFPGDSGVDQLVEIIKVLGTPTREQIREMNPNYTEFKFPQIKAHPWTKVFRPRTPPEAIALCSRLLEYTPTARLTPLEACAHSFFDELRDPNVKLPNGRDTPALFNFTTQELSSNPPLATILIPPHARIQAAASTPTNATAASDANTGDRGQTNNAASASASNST
Acetylcholinesterase (Homo sapiens, UniProt P22303), sequence (P22303 whole entry): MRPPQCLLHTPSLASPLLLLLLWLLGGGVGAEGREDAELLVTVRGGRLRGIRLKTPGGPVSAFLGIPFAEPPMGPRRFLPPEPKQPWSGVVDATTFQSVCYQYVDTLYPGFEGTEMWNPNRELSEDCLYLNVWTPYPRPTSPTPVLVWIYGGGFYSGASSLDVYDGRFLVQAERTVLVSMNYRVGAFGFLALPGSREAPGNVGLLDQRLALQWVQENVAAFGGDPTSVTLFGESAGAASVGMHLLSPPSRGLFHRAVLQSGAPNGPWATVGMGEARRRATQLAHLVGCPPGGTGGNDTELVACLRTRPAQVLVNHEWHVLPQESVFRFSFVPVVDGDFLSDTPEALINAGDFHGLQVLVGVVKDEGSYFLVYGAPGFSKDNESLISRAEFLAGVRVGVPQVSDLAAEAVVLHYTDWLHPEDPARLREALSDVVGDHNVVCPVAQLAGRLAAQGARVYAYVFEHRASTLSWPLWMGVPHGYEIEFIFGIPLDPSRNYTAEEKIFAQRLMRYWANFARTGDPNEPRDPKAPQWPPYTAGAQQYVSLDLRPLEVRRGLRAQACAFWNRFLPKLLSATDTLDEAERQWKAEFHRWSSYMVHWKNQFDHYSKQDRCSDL
Acetylcholinesterase (Electrophorus electricus, UniProt O42275), sequence (O42275 whole entry): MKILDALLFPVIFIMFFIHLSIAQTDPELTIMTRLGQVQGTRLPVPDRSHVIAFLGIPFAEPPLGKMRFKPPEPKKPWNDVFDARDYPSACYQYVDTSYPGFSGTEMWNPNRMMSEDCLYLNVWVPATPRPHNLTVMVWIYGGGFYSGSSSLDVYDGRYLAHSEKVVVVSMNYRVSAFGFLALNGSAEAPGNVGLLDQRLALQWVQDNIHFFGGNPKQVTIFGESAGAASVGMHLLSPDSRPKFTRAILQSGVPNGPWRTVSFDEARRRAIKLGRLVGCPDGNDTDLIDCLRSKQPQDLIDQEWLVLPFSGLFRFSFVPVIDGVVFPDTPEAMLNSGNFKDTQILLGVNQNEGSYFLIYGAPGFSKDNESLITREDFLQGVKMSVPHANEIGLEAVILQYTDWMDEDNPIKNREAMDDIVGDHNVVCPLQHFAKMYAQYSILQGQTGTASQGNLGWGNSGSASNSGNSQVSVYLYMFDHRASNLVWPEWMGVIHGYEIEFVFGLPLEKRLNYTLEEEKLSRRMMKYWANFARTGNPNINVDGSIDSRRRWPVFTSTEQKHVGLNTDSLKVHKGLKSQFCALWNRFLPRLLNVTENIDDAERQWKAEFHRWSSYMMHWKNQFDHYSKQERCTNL

Structure (SMILES): O=C(Nc1cncc(OCC2CCN(Cc3ccccc3)CC2)c1)c1ccnc(NC(=O)C2CC2)c1
- AUC(0-inf) [1]: 0.377 µg·h/mL
- bioavailability [2]: 24.8%
- concentration at 1 h [3]: 34.4 ng/g
- IC50 [4]: 0.023 µM
- Activity (HT-22): 66%
- half-life [5]: 6.3 h
- MRT inf [6]: 10 h
- concentration at 1 h [7]: 112 ng/g
- Kp at 1.5 h [8]: 0.695
- half-life [9]: 21.4 h
- inhibition [10]: 73.1%
- IC50 (Acetylcholinesterase [11]): 0.0016 µM
- concentration at 1.5 h [12]: 43.7 ng/g
- AUC(0-inf) [13]: 0.152 µg·h/mL
- concentration at 1.5 h [14]: 62.9 ng/g
- Kp at 1 h [15]: 0.306
- MRT inf [16]: 8.9 h
- Cmax [17]: 0.0983 µg/mL
- Activity (Mus musculus [18]): Active
- Papp [19]: 82 nm/s
- inhibition [20]: 48.3%
- IC50 (Acetylcholinesterase [21]): 0.0026 µM
- Tmax [22]: 1.7 h
- Cmax [23]: 0.0471 µg/mL

Structure (SMILES): CC(=O)Nc1cc(C(=O)Nc2cccc(OCC3CCN(Cc4ccccc4)CC3)c2)ccn1
- IC50 [4]: > 10 µM
- IC50 (Acetylcholinesterase [11]): 2.2 µM
- IC50 (Acetylcholinesterase [21]): > 10 µM

Structure (SMILES): O=C(NCC1CCN(Cc2ccccc2F)CC1)c1n[nH]c2ccc(-c3cccnc3)cc12
- IC50 [4]: 0.079 µM
- IC50 (Acetylcholinesterase [11]): 0.718 µM
- IC50 (Acetylcholinesterase [21]): 2.18 µM

Structure (SMILES): O=C(NCC1CCN(Cc2ccccc2)CC1)c1cncc(NC(=O)c2ccnc(NC(=O)C3CC3)c2)c1
- IC50 [4]: 0.305 µM
- IC50 (Acetylcholinesterase [11]): 1.1 µM
- IC50 (Acetylcholinesterase [21]): 1.1 µM

Structure (SMILES): O=C(NCC1CCN(Cc2cccc(F)c2)CC1)c1cncc(NC(=O)c2ccnc(NC(=O)C3CC3)c2)c1
- IC50 [4]: 0.097 µM
- IC50 (Acetylcholinesterase [11]): 1.02 µM
- IC50 (Acetylcholinesterase [21]): 2.39 µM

Structure (SMILES): Cc1cccc(CN2CCC(CNC(=O)c3cncc(NC(=O)c4ccnc(NC(=O)C5CC5)c4)c3)CC2)c1
- IC50 [4]: 0.198 µM
- IC50 (Acetylcholinesterase [11]): 4.16 µM
- IC50 (Acetylcholinesterase [21]): 6360 µM

Structure (SMILES): O=C(Nc1cncc(OCC2CCN(Cc3ccccc3Cl)CC2)c1)c1ccnc(NC(=O)C2CC2)c1
- IC50 [4]: 0.079 µM
- IC50 (Acetylcholinesterase [11]): 0.0972 µM
- IC50 (Acetylcholinesterase [21]): 0.0816 µM

Structure (SMILES): CC(=O)Nc1cc(C(=O)Nc2cccc(OCC3CCN(Cc4ccc(F)cc4)CC3)c2)ccn1
- IC50 [4]: > 10 µM
- IC50 (Acetylcholinesterase [11]): > 10 µM

Structure (SMILES): O=C(Nc1cccc(OCC2CCN(Cc3ccc(F)cc3)CC2)c1)c1ccnc(NC(=O)C2CC2)c1
- IC50 [4]: > 10 µM
- IC50 (Acetylcholinesterase [11]): > 10 µM

Structure (SMILES): O=C(Nc1cncc(OCC2CCN(Cc3ccccc3F)CC2)c1)c1ccnc(NC(=O)C2CC2)c1
- IC50 [4]: 0.077 µM
- IC50 (Acetylcholinesterase [11]): 0.0101 µM
- IC50 (Acetylcholinesterase [21]): 0.0047 µM

Structure (SMILES): O=C(NCC1CCN(Cc2ccccc2)CC1)c1n[nH]c2ccc(-c3cccnc3)cc12
- IC50 [4]: 0.095 µM
- IC50 (Acetylcholinesterase [11]): 0.552 µM
- IC50 (Acetylcholinesterase [21]): 1.09 µM

Structure (SMILES): O=C(Nc1cccc(OCC2CCN(Cc3ccccc3)CC2)c1)c1ccnc(NC(=O)C2CC2)c1
- IC50 [4]: 9.75 µM
- IC50 (Acetylcholinesterase [11]): 0.843 µM
- IC50 (Acetylcholinesterase [21]): 1.39 µM

Structure (SMILES): COc1cc2c(cc1OC)C(=O)C(CC1CCN(Cc3ccccc3)CC1)C2 (stereo unspecified) [DONEPEZIL]
- IC50 [4]: > 10 µM
- Activity (Mus musculus [24]): Active
- Activity (Mus musculus [25]): Active
- Activity (Mus musculus [18]): Active

Structure (SMILES): COc1cccc(CN2CCC(CNC(=O)c3cncc(NC(=O)c4ccnc(NC(=O)C5CC5)c4)c3)CC2)c1
- IC50 [4]: 0.126 µM
- IC50 (Acetylcholinesterase [11]): 8.91 µM
- IC50 (Acetylcholinesterase [21]): > 10 µM

Structure (SMILES): O=C(NCCC1CCN(Cc2cccc(Cl)c2)CC1)c1cncc(NC(=O)c2ccnc(NC(=O)C3CC3)c2)c1
- IC50 [4]: 0.152 µM

Structure (SMILES): O=C(NCC1CCN(Cc2ccc(F)cc2)CC1)c1cncc(NC(=O)c2ccnc(NC(=O)C3CC3)c2)c1
- IC50 [4]: 0.244 µM
- IC50 (Acetylcholinesterase [11]): 1.16 µM
- IC50 (Acetylcholinesterase [21]): 3.03 µM
